The record followed here is patent US12539335B2, “Tricyclic polypeptide conjugated drug and use thereof” (CONJUSTAR (ZHUHAI) BIOLOGICS CO., LTD., priority 2021, dated 2026).

Where a name gives a salt, the structure may show the parent alone. Starred links: 1 amine or outer side, 2 acyl side, 3 side chain; linkers in the order of their positions; H or OH if unused. Positions of bridges follow the written chain, without caps; N, C: chain ends. Non-standard residues stand in square brackets, D forms with d. Residues, ends and D or L forms follow the SMILES beside them. Chains are numbered I, II in the order given. *: point of attachment. TATA = O=C(CC[*:1])N1CN(C(=O)CC[*:2])CN(C(=O)CC[*:3])C1; Dolaproine = CO[C@@H]([C@@H]1CCCN1)[C@@H](C)C(=O)O; Dil = CC[C@H](C)[C@H](NC)[C@@H](CC(=O)O)OC; 1Nal = N[C@@H](Cc1cccc2ccccc12)C(=O)O; X2 = O=C(CCCC(=O)[*:2])NCCC(=O)[*:1]; PABC = O=C(OCc1ccc(N[*:1])cc1)[*:2]; X1 = C[C@@H](N*)[C@@H](O)c1ccccc1; Hyp = O=C(O)[C@@H]1C[C@@H](O)CN1; hArg = N=C(N)NCCCC[C@H](N)C(=O)O; Cit = NC(=O)NCCC[C@H](N)C(=O)O; Pen = CC(C)(S)[C@H](N)C(=O)O; NMeV = CN[C@H](C(=O)O)C(C)C; Sar = CNCC(=O)O

A word on the Kd: it is the concentration at which binding is half-saturated. By IC50 is commonly meant the concentration that gives 50% inhibition.

For assay [1], the target named is T1, Human Nectin-4 (Homo sapiens, UniProt Q96NY8).
T1 construct: purchased GE Healthcare 1006-72
T1 sequence (Q96NY8 32-510): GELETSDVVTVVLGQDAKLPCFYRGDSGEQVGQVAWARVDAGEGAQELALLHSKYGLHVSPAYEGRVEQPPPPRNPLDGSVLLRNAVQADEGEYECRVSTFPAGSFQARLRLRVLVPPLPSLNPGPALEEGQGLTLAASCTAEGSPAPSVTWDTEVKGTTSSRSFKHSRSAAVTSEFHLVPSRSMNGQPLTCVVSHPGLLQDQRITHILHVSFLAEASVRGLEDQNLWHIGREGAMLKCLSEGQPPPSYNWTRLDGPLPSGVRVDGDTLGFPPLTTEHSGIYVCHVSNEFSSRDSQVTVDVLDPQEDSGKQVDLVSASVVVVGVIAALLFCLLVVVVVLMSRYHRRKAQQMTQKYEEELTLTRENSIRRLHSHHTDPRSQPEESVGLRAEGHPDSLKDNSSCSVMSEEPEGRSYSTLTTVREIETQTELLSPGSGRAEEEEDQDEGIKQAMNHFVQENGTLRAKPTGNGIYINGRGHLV
As to the kind of experiment: Binding capacity to Nectin-4 protein (SPR, Biacore 8K). The method, then:
Test Example 1. Binding Capacity Test of the Compounds of the Present Invention to Nectin-4 Protein
To detect the affinity of the compound to be tested to the target protein Nectin-4 using the SPR method.
• Biacore 8K (GE Healthcare) • 96-well Plate (Cat #650101, greiner bio-one) • CM5 chip (Cat #BR-1005-30, GE Healthcare) • Amine Coupling Kit (Cat #BR-1000-50, GE Healthcare) • EDC • NHS • 1 M ethanolamine • 10 mM sodium acetate pH 4.5 (Cat #BR-1003-50, GE Healthcare) • DMSO (Cat #D4540, Sigma) • P20 (Cat #BR-1000-54, GE Healthcare) • PBS (Cat #BR-1006-72, GE Healthcare) • Nectin-4 (Cat #1006-72, GE Healthcare) 3. Experimental Protocol
In this experiment, the amino coupling method was used. The target protein Nectin-4 was directly immobilized on the CM5 chip using Biacore 8K. […] The final data were subjected to Kinetics fitting analysis based on a 1:1 model using Biacore Insight Evaluation Software (V 2.0.15.12933).
1) Preparation of the buffer: 10 mM PBS, pH 7.4, 137 mM NaCl, 2.7 mM KCl, 5% DMSO, and 0.05% P20.
2) Activation of the CM5 chip: The CM5 chip was activated with 400 mM EDC and 100 mM NHS at a flow rate of 10 μL/min for 420 seconds.
3) Coupling of the target protein: The target protein was diluted to 10 μg/mL with 10 mM sodium acetate (pH 4.5) and coupled at a flow rate of 10 μL/min for 284 s. The 1 #, 2 #, and 3 #channels on the chip were used in the experiment, and the coupling results were 1639.9RU, 1747.8RU, and 1702.2RU, respectively.
4) Blocking of the CM5 chip: The CM5 chip was blocked with 1 M ethanolamine at a flow rate of 10 μL/min for 420 seconds.
5) Analyte concentration: The compound to be tested was diluted with the buffer. The compound to be tested was diluted from 100 nM to 0.78 nM in a 2-fold gradient.
6) Sample injection analysis: Each concentration of the working solution of the compound to be tested corresponded to one cycle, with a flow rate of 30 μL/min for binding for 180 seconds and dissociating for 180 seconds. The last cycle was a 5% DMSO solvent correction cycle.
7) All results were subjected to kinetics fitting analysis based on a 1:1 model. […]

The test system of assay [2] is MDA-MB-468 cells. As to the kind of experiment: In vitro anti-proliferative activity, CellTiter-Glo, MDA-MB-468. In kind it is cell-based, Human. The conditions noted are these: MDA-MB-468, 72 h. Here is the method:
Test Example 2: In Vitro Anti-Proliferative Activity of the Compounds of the Present Invention on Nci-H292 and Mda-Mb-468 Cells
To investigate the effect of the compounds of the present invention on inhibiting cell proliferation by detecting the effect of the compounds on cell activity in vitro in tumor cell lines MDA-MB-468 and NCI-H292.
The tumor cell lines were cultured in a 37° C., no CO2 incubator and a 37° C., 5% CO2 incubator according to the culture conditions shown in Table 8, respectively. The cells were periodically passaged, and cells in a logarithmic growth phase were taken for plating.
Cells in a logarithmic growth phase were harvested and centrifuged at 1000 rpm for 3 min at room temperature. The supernatant was discarded, and the cells were resuspended in 5 mL of a culture medium. Then, 20 μL of the cell suspension was pipetted and mixed with trypan blue at 1:1 for staining for 3 min to detect cell viability and to count viable cells. The cell density was adjusted to 3000 cells/well. Then, 90 μL of the cell suspension was added to each culture plate well, and a cell-free culture medium was added to blank control wells. The culture plate was incubated overnight in a 37° C., no CO2, and 100% relative humidity incubator and a 37° C., 5% CO2, and 100% relative humidity incubator, respectively.
Preparation of a 400× compound stock plate: The compound to be tested was gradient diluted with DMSO from the highest to the lowest concentration.
Preparation of a 10× compound working solution: 78 μL of a cell culture medium was added to a V-bottomed 96-well plate, and 2 μL of the compound solution of each concentration was pipetted from the 400× compound stock plate into the cell culture medium in the 96-well plate. Then, 2 μL of DMSO was added to vehicle control and blank control. […]
The detection was performed according to the instructions of the Promega CellTiter-Glo Luminescent Cell Viability Assay kit (Promega-G7573). The luminescence signal was detected on the En Vision® Multi-mode Plate Reader (En Vision 2104-10). […]
On the technique in general: ATP-based viability assays read luminescence as a measure of living cells.

In turn, `CC[C@H](C)[C@@H]([C@@H](CC(=O)N1CCC[C@H]1[C@H](OC)[C@@H](C)C(=O)N[C@H](C)[C@@H](O)c1ccccc1)OC)N(C)C(=O)[C@@H](NC(=O)[C@H](C(C)C)N(C)C(=O)OCc1ccc(NC(=O)[C@H](CCCNC(N)=O)NC(=O)[C@@H](NC(=O)CCCC(=O)NCCC(=O)N(C)CC(=O)N(C)CC(=O)N(C)CC(=O)N(C)CC(=O)N(C)CC(=O)N(C)CC(=O)N(C)CC(=O)N(C)CC(=O)N(C)CC(=O)N(C)CC(=O)N[C@H]2CCCCNC(=O)C[C@@H](C(=O)N[C@H]3CSCCC(=O)N4CN5CN(C4)C(=O)CCSC(C)(C)[C@H](NC(=O)[C@@H](CC(=O)O)NC(=O)[C@H](Cc4cccc6ccccc46)NC(=O)[C@@H]4CCCN4C3=O)C(=O)N[C@@H](CCSC)C(=O)N[C@@H](CCCCNC(=N)N)C(=O)N[C@@H](CC(=O)O)C(=O)N[C@@H](Cc3c[nH]c4ccccc34)C(=O)N[C@@H](CO)C(=O)N[C@@H]([C@@H](C)O)C(=O)N3CCC[C@H]3C(=O)N3C[C@H](O)C[C@H]3C(=O)N[C@@H](Cc3c[nH]c4ccccc34)C(=O)N[C@H](C(N)=O)CSCCC5=O)NC(=O)CN(C)C2=O)C(C)C)cc1)C(C)C` [Acetate salt of PDC_2] (I: [Sar][Sar][Sar][Sar][Sar][Sar][Sar][Sar][Sar][Sar]K[Sar]DCP[1Nal][dD][Pen]M[hArg]DWSTP[Hyp]WC-NH2 / II: V[Cit][PABC][NMeV]V[Dil][Dolaproine]-X1; lactam I:11-I:13; linker I:14-I:18-I:28 via TATA; linker I:N-II:N via X2) displayed a Kd in assay [1] of 0.43 nM. In assay [2], 32.3 nM corresponded to half-maximal inhibition (IC50), the Maximum inhibition rate was 86.28% and the Minimum inhibition rate is recorded as −10.28%.
